The values below are quoted from earlier work in patent publication US20230190748A1, “COMPOSITIONS FOR TREATMENT OF AGED DISEASES” (GERO PTE. LTD., priority 2020, published 2023).

The conditions of series [1]: white to brownish yellow powder.
Series [2] has as its target EGFR/ErbB1 (Homo sapiens, UniProt P00533). The conditions noted are these: class symbols + to ++++ and √; legend not given.
Series [3] deals with HER2/ErbB2 (Homo sapiens, UniProt P04626). The conditions noted are these: class symbols + to ++++ and √; legend not given.
Chain of HER2/ErbB2 (P04626 23-1255): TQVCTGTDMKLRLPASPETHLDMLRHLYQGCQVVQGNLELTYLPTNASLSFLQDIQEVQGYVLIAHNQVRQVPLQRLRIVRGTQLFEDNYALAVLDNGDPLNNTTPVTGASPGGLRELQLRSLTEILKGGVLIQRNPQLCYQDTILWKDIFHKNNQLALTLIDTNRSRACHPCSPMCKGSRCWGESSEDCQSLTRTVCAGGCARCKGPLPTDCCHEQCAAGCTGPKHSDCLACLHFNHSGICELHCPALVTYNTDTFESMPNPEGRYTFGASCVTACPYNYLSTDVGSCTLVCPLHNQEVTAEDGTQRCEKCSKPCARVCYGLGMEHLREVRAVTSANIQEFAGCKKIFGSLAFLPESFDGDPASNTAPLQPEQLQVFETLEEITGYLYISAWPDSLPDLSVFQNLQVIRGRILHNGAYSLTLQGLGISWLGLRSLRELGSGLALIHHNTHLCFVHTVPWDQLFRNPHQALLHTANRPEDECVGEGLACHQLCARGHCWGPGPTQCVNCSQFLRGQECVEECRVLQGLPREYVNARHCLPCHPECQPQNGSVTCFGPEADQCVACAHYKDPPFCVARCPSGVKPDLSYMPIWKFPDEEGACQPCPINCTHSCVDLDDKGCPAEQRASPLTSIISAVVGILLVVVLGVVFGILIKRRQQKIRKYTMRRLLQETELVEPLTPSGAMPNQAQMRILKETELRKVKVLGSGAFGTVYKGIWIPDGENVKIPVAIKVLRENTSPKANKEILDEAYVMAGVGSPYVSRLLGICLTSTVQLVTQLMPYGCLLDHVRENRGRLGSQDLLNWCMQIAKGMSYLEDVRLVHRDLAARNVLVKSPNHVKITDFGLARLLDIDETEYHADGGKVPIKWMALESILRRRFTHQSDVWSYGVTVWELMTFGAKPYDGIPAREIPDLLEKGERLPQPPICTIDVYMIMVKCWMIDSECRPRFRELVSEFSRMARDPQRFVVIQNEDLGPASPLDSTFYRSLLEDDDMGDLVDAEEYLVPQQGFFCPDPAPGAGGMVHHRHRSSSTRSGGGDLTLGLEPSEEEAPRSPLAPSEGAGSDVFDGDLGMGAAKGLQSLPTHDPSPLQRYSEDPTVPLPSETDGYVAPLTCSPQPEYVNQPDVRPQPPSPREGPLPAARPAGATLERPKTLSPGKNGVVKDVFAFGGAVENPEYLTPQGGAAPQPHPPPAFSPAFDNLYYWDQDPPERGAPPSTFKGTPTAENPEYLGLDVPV

Molecules are shown by their SMILES.

Chain of EGFR/ErbB1 (P00533 25-1210): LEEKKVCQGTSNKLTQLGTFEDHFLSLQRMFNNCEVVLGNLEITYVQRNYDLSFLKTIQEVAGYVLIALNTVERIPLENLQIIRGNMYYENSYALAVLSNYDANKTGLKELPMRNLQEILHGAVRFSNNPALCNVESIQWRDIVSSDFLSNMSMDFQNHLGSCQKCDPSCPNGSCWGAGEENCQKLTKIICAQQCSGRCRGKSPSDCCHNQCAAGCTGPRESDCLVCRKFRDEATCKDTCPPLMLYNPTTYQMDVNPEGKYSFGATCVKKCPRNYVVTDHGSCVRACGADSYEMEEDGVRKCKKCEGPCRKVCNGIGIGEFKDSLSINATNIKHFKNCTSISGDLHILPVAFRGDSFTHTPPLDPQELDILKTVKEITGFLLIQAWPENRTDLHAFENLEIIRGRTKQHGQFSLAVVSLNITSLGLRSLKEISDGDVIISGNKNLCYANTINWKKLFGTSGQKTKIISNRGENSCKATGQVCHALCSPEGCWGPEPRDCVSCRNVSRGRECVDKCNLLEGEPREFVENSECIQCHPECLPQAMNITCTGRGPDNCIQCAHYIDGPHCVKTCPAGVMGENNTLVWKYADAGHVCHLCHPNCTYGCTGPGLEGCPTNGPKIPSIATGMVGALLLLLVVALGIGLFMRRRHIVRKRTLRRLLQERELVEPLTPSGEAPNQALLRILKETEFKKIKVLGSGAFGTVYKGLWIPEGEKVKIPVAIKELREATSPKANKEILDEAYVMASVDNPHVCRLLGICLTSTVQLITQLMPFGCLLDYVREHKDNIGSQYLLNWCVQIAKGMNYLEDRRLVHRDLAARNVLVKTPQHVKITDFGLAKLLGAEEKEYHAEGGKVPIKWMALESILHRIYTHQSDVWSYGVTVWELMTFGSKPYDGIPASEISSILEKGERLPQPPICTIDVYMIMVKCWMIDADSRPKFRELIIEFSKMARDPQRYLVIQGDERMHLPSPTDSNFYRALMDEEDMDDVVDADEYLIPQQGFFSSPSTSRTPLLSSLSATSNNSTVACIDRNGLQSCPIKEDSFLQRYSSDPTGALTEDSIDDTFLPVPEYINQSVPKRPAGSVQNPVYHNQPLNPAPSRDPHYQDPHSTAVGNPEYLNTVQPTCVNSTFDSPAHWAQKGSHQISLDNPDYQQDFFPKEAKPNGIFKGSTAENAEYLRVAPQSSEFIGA

`CN(C)C/C=C/C(=O)Nc1cc2c(Nc3ccc(F)c(Cl)c3)ncnc2cc1O[C@H]1CCOC1.O=C(O)/C=C\C(=O)O.O=C(O)/C=C\C(=O)O` [Afatinib (BIBW2992) Dimaleate, 2-butenamide, N-[4-[(3-chloro-4-fluorophenyl)amino] 7-[[(3S)-tetrahydro-3-furanyl]oxy]-6-quinazolinyl]-4-(dimethylamino)-,(2E)-, (2Z)-2-butenedioate (1:2)]: the solubility in water entry in series [1] was “water soluble”. As for `O=C(/C=C/c1ccc(O)c(O)c1)c1ccc(O)cc1O` [Butein], the EGFR/ErbB1 result in series [2] is reported as “√”. As to `Cc1cc(O)c2c(c1)C(=O)c1cccc(O)c1C2=O` [Chrysophanic Acid], in series [2], the EGFR/ErbB1 result is “√”.

As to `Cc1cc(Nc2ncnc3ccc(-c4ccc(CNCCS(C)(=O)=O)o4)cc23)ccc1Oc1ccn2ncnc2c1` [HER2-Inhibitor-1], the HER2/ErbB2 result in series [3] is recorded as “√”. For `C=CC(=O)N1CC[C@@H](Oc2nc(Nc3ccc(N4CCC(N5CCN(C)CC5)CC4)cc3)c(C(N)=O)nc2CC)C1` [Naquotinib(ASP8273), Naquotinib], the EGFR/ErbB1 result in series [2] was “√”.

For the compound `C=CC(=O)Nc1cccc(Oc2nc(Nc3ccc(N4CCN(C)CC4)cc3)nc3ccsc23)c1` [Olmutinib (HM61713, BI 1482694), Olmutinib], the EGFR/ErbB1 result in series [2] is “√”. With `C=CC(=O)Nc1cccc(Sc2nc(Nc3ccc(N4CCN(C)CC4)cc3)ncc2Cl)c1` [WZ8040], the EGFR/ErbB1 result in series [2] is reported as “√”.
